Results from ChEMBL document CHEMBL4219051, “Cyclin-Dependent Kinase 8: A New Hope in Targeted Cancer Therapy?” (J Med Chem, 2018).

Assays:
[1] = target: Receptor-type tyrosine-protein kinase FLT3 (Homo sapiens) (UniProt P36888); assay: Inhibition of FLT3 (unknown origin) at 1 uM relative to control
HCT-116 [2] = assay: cells; details: Homo sapiens
[3] = Growth inhibition of human UKE1 cells after 10 days by CellTiter-Glo assay; format: functional; details: UKE1, 240 h
[4] = Growth inhibition of human SKNO1 cells after 10 days by CellTiter-Glo assay; format: functional; details: SKNO-1, 240 h
[5] = target: Rho-associated protein kinase 2 (Homo sapiens, UniProt O75116); assay: Inhibition of ROCK2 (unknown origin)
RS4-11 = assay: Growth inhibition of human RS4:11 cells after 10 days by CellTiter-Glo assay; format: functional; details: RS4-11, 240 h
SET-2 [6] = assay: Growth inhibition of human SET2 cells after 10 days by CellTiter-Glo assay; format: functional; details: SET-2, 240 h
[7] = target: T1, Cyclin-dependent kinase 19 (Homo sapiens, UniProt Q9BWU1); assay: Inhibition of CDK19 (unknown origin) in presence of [gamma33P]ATP by radiometric method
T1 sequence (Q9BWU1 whole entry): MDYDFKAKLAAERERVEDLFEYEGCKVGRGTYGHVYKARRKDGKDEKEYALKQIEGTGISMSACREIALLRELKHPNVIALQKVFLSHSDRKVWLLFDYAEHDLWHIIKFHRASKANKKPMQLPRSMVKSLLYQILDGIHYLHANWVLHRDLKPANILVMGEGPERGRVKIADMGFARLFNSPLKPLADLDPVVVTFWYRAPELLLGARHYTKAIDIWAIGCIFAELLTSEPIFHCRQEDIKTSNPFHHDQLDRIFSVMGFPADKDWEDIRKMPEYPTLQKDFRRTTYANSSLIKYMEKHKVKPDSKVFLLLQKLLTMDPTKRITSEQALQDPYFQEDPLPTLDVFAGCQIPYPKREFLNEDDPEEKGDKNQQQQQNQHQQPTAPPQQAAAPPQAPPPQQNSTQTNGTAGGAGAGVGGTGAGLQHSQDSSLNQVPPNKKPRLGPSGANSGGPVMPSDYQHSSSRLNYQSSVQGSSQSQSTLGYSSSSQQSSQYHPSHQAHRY

MV4-11 [8] = assay: Growth inhibition of human MV4-11 cells after 10 days by CellTiter-Glo assay; format: functional; details: MV4-11, 240 h
TF-1 = assay: Growth inhibition of human TF1 cells after 10 days by CellTiter-Glo assay; format: functional; details: TF-1, 240 h
MOLM-14 = assay: Growth inhibition of human MOLM14 cells after 10 days by CellTiter-Glo assay; format: functional; details: MOLM-14, 240 h
SET-2 [9] = assay: Antitumor activity against human SET2 cells xenografted in SCID Beige mouse assessed as tumor growth inhibition at 0.16 mg/kg, ip qd measured on day 33 relative to control; format: functional; details: SET-2, ip, 792 h, read-out: TGI
HCT-116 [10] = assay: Growth inhibition of human HCT116 cells after 7 days by CellTiter-Glo assay; format: functional; details: HCT-116, 168 h
MEG-01 = assay: Growth inhibition of human MEG01 cells after 10 days by CellTiter-Glo assay; format: functional; details: MEG-01, 240 h
[11] = target: Rho-associated protein kinase 1 (Homo sapiens, UniProt Q13464); assay: Inhibition of ROCK1 (unknown origin)
Rho-associated protein kinase 1, sequence (Q13464 whole entry): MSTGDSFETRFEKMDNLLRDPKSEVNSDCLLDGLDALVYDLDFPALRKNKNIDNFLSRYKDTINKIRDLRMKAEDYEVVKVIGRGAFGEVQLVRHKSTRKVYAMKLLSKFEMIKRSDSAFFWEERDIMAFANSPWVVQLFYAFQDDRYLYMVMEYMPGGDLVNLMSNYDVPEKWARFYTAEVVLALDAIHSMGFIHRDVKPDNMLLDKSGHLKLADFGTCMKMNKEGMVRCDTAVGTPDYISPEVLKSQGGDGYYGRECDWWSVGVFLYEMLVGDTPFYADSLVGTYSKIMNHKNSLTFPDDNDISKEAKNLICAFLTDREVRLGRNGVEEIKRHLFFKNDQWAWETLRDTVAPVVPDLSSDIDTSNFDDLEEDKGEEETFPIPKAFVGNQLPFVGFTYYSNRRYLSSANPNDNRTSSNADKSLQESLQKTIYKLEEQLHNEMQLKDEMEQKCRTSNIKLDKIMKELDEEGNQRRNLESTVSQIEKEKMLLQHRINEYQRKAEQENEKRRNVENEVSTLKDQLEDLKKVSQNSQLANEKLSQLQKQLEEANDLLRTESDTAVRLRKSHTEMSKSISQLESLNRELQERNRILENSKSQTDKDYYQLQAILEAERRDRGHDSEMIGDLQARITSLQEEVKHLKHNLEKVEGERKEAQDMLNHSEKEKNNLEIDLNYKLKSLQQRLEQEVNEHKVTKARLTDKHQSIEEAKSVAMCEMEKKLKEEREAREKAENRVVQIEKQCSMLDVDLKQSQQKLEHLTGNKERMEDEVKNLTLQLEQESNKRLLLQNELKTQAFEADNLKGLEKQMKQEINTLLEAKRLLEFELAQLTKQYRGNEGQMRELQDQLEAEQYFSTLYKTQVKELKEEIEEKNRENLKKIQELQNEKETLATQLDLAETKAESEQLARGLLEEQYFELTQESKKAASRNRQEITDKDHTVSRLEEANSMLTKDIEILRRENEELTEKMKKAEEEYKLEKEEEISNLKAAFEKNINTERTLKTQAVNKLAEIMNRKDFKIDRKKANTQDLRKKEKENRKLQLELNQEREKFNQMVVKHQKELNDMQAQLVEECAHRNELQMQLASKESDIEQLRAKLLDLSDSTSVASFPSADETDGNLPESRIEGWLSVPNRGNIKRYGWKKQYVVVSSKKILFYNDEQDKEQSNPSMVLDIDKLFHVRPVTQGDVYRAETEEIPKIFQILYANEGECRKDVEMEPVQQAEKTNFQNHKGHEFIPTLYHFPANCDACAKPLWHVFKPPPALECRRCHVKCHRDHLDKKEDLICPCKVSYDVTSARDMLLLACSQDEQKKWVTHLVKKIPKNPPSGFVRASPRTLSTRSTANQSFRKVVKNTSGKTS

[12] = target: T1, Cyclin-dependent kinase 19; assay: Inhibition of CDK19 (unknown origin)
[13] = target: Cyclin-dependent kinase 8/Cyclin-C (Mus musculus, UniProt Q8R3L8); assay: Inhibition of CDK8/Cyclin-C in R848-stimulated mouse BMDC assessed as upregulation of IL-10 level; format: cell-based
Cyclin-dependent kinase 8/Cyclin-C, sequence (Q8R3L8 whole entry): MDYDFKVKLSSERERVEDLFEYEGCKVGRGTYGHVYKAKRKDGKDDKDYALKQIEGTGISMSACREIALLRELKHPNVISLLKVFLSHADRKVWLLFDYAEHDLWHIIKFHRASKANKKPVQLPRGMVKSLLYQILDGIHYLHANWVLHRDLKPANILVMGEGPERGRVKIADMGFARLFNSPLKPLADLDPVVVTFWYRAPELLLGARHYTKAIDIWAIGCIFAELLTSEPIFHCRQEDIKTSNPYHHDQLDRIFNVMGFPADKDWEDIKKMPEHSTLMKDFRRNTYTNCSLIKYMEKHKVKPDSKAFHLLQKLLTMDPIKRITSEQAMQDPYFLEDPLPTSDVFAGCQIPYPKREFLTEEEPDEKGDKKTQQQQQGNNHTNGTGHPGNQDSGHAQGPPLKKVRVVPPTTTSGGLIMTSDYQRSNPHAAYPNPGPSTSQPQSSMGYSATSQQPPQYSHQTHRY
Cyclin-dependent kinase 8/Cyclin-C, sequence (Q62447 whole entry, further chain): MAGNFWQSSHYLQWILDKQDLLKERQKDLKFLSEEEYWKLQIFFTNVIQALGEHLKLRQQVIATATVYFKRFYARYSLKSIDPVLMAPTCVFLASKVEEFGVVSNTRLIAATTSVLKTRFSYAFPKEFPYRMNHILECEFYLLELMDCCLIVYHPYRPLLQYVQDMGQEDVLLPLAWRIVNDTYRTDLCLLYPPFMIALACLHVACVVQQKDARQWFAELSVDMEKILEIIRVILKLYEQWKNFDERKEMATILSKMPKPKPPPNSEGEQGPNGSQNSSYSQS

[14] = target: Cyclin-dependent kinase 8 (Homo sapiens, UniProt P49336); assay: Inhibition of CDK8 (unknown origin)
Cyclin-dependent kinase 8, sequence (P49336 whole entry): as the sequence (Q8R3L8 whole entry) above, with L82Q, E366D, T372N, G394S, A396T counted along it

[15] = Growth inhibition of human SKNO1 cells by alamar blue assay; format: functional; details: SKNO-1
HL-60 = assay: Growth inhibition of human HL60 cells by alamar blue assay; format: functional
[16] = Growth inhibition of human MOLM6 cells by alamar blue assay; format: functional
OCI-AML-3 = assay: Growth inhibition of human OCI-AML3 cells by alamar blue assay; format: functional
[17] = target: Cyclin-C/Cyclin-dependent kinase 19 (Homo sapiens, UniProt Q9BWU1); assay: Inhibition of CDK19/Cyclin-C (unknown origin) in presence of [gamma33P]ATP by radiometric method; format: protein-complex assay
Cyclin-C/Cyclin-dependent kinase 19, sequence (Q9BWU1 whole entry): as the sequence (Q9BWU1 whole entry) above
Cyclin-C/Cyclin-dependent kinase 19, sequence (P24863 whole entry, further chain): as the sequence (Q62447 whole entry, further chain) above, with T112A, V171M counted along it

CDK8/Cyclin C [18] = target: T2, CDK8/Cyclin C (Homo sapiens, UniProt P49336); assay: Inhibition of CDK8/Cyclin-C (unknown origin) in presence of [gamma33P]ATP by radiometric method; format: protein-complex assay
T2 sequence (P49336 whole entry): as the sequence (Q8R3L8 whole entry) above, with L82Q, E366D, T372N, G394S, A396T counted along it
T2 sequence (P24863 whole entry, further chain): as the sequence (Q62447 whole entry, further chain) above, with T112A, V171M counted along it

KG-1 = assay: Growth inhibition of human KG1 cells by alamar blue assay; format: functional
OCI-AML2 = assay: Growth inhibition of human OCI-AML2 cells by alamar blue assay; format: functional
MV4-11 [19] = assay: Growth inhibition of human MV4-11 cells by alamar blue assay; format: functional
[20] = Growth inhibition of human MOLM16 cells by alamar blue assay; format: functional
[21] = target: Mitogen-activated protein kinase kinase kinase kinase 2 (Homo sapiens) (UniProt Q12851); assay: Inhibition of MAP4K2 (unknown origin) at 2 uM relative to control
Mitogen-activated protein kinase kinase kinase kinase 2 (Homo sapiens), sequence (Q12851 whole entry): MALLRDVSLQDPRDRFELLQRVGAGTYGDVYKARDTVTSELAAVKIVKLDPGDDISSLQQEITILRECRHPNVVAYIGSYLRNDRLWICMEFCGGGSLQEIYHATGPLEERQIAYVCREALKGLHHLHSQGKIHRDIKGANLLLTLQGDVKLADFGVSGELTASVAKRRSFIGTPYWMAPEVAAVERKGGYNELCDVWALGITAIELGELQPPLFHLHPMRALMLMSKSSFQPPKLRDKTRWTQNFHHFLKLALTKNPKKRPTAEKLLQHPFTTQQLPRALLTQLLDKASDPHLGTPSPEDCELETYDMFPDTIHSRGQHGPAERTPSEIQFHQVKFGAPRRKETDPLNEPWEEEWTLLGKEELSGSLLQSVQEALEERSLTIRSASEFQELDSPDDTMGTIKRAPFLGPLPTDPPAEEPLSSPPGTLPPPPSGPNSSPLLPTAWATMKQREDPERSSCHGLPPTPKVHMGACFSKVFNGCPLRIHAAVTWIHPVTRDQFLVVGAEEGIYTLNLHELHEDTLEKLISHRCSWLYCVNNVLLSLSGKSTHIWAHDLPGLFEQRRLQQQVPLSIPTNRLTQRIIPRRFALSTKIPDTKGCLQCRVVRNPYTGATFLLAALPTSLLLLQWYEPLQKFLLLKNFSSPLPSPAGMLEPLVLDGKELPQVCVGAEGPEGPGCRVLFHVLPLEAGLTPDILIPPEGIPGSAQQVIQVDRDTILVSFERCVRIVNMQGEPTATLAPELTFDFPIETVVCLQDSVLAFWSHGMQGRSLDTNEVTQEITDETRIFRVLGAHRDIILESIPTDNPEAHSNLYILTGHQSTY

[22] = target: Mitogen-activated protein kinase kinase kinase 19 (Homo sapiens) (UniProt Q56UN5); assay: Inhibition of YSK4 (unknown origin) at 2 uM relative to control
CDK8/Cyclin C [23] = target: T2, CDK8/Cyclin C; assay: Inhibition of CDK8/CCNC (unknown origin) using RBER-IRStide as substrate in presence of [gamma33P]ATP by radiometric method; format: protein-complex assay

Receptor-type tyrosine-protein kinase FLT3 (Homo sapiens), sequence (P36888 whole entry): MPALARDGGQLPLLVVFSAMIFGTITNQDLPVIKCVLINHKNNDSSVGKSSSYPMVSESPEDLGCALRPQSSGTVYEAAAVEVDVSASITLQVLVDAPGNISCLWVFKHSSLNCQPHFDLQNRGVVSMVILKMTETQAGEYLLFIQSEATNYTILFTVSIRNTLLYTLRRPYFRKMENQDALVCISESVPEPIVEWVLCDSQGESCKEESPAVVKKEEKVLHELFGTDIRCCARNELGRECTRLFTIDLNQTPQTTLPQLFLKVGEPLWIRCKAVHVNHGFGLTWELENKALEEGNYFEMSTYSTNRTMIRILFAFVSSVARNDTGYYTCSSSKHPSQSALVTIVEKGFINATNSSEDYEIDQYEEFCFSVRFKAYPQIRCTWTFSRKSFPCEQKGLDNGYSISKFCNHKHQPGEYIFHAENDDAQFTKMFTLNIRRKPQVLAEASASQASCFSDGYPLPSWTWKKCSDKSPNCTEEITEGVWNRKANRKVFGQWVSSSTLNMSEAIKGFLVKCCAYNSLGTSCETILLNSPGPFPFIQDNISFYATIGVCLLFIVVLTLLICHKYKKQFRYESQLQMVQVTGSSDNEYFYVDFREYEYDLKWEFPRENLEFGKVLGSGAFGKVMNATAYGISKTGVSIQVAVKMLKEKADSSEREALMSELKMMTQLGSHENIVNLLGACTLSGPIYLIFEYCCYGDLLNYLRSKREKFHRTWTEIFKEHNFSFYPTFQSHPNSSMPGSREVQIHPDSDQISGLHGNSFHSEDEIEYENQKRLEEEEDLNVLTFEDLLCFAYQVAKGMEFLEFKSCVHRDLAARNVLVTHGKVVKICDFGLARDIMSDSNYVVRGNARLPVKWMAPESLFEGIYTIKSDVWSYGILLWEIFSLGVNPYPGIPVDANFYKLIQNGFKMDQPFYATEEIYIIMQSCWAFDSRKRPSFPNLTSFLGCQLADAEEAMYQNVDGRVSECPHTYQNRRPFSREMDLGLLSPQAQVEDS

CCN1CCN(Cc2ccc(NC(=O)N[C@@H]3CCN(c4ccnc(NC)n4)C3)cc2C(F)(F)F)CC1
inhibition [1]: 74% | IC50 (HCT-116 [2]): > 10000 nM

CN(C)[C@H]1C[C@@]23CC[C@@]4(O2)C(=CC[C@]2(C)[C@@H](c5ccc6ccncc6c5)CC[C@H]24)C=C3[C@@H](O)[C@@H]1O
GI50 [3]: 7 nM | GI50 [4]: 1 nM | IC50 [5]: 220 nM | GI50 (RS4-11): 3 nM | GI50 (SET-2 [6]): 4 nM | IC50 [7]: 10 nM | GI50 (MV4-11 [8]): 6 nM | GI50 (TF-1): 360 nM | GI50 (MOLM-14): 5 nM | inhibition in vivo at 0.16 mg/kg (SET-2 [9]): 70% | GI50 (HCT-116 [10]): > 1000 nM | GI50 (MEG-01): 9 nM | IC50 [11]: 250 nM

CC1CCc2nc(N)c(C#N)c(-c3cccnc3)c2C1 (stereo unspecified)
IC50 [12]: 30000 nM | EC50 [13]: 1400 nM | IC50 [14]: 500 nM

Cc1c(Br)c(Br)c2c3c1nc(N1CCNCC1)n3CCC2 [SEL-120 FREE BASE]
GI50 [15]: < 1000 nM | GI50 (HL-60): < 1000 nM | GI50 [16]: < 1000 nM | GI50 (OCI-AML-3): < 1000 nM | IC50 [17]: 10 nM | IC50 (CDK8/Cyclin C [18]): 4 nM | GI50 (KG-1): < 1000 nM | GI50 (OCI-AML2): < 1000 nM | GI50 (MV4-11 [19]): < 1000 nM | GI50 [20]: < 1000 nM

CN1CCN(C(=O)c2ccc3cc(CCNc4ncnc5ccc(C#N)cc45)ccc3c2)CC1
inhibition [21]: 69% | inhibition [22]: 59%

N#Cc1ccc2ncnc(NCCc3ccccc3)c2c1
IC50 (CDK8/Cyclin C [23]): 280 nM
